Measurements from patent US10376545B2, “Methods for producing hormone secreting cells in a subject” (ViaCyte, Inc., priority 2013, dated 2019).

Key:
[1] = system: INS, GCG, SST, GHRL, PDX1, NKX6.1, NGN3, ID1 expression; assay: Nanostring mRNA analysis of endocrine cell cultures; type: cell-based, human; conditions: for pancreatic-lineage gene expression: agent at days 30-35 during stage 7, analyzed at d35
[2] = system: re-aggregated endocrine cell aggregates; assay: Cell-to-cell association of re-aggregated endocrine cell aggregates (stereomicroscope images); type: cell-based, human; conditions: 10 μM Y-27632, Matrigel 0.05% v/v
Procedure: In Example 11 above, the cell aggregates were dissociated and re-aggregated or re-associated between stage 6 and 7. Dissociation was performed using Accutase on or around day 20 and re-aggregated in rotation culture, substantially as described in Schulz et al. supra. The re-aggregation removes certain PEC sub-populations including any remaining non-endocrine (CHGA−) sub-populations as well as other non-endocrine cells as described in more detail in Kelly et al. (2011), supra. Endocrine cells have affinity for each other, however, this interaction in vitro is relatively weak, even the re-aggregated cells at stages 6/7 were only loosely associated. So, studies were performed to test various factors and agents for their ability to increase the cell-to-cell interactions within the endocrine cell aggregates.
The combination of Y-27632 and Matrigel increased at least for example the cell-to-cell interaction of the cell aggregates over either component alone.
A differentiated culture produced substantially as described in Example 12, at day 20 was dissociated with Accutase and re-aggregated in db with 5% FBS (lower concentrations of FBS, i.e. 2% or 1% are also effective) and DNAse. Y-27632 was not included in the re-aggregation medium as doing so would result in incorporation of non-endocrine (CHGA−) sub-population as well as other non-endocrine cells into the newly formed aggregates. […]

PEC derived from hESC = assay: Flow cytometry analysis of PEC derived from hESC (CHGA, NKX6.1, PDX1 sub-populations); type: cell-based, human
Procedure: So, Activin levels less than about 25 ng/mL are acceptable for maintaining cell mass and yield. Applicant then performed flow cytometry analysis on these cell cultures to determine whether Activin at low levels during stages 3 and 4 had any effect on cell aggregate composition; see Table 14. […] Advantageously, the PDX1 only and Triple Negative sub-populations are reduced as compared to the control, particularly when Activin is used in stages 3 and 4.
To determine the cell composition of the PEC population with the combination of Activin, Heregulin and Wnt during stage 3, flow cytometry was performed after stage 4 and the PEC cellular composition is shown in Table 14. […] Data from flow cytometry supports and is consistent with data from QPCR that the combination of the three factors (AHW) in general delayed or suppressed differentiation of cells committed to the endocrine lineage (CHGA+) in PEC without affecting the production of the non-endocrine (CHGA−) sub-population. The delayed expression of these genes in vitro is consistent with their on-set (or delay) in in vivo mammalian pancreatic development, whereby NGN3 expression in endocrine differentiation occurs after the on-set of PDX1 and NKX6.1 expression in the non-endocrine (CHGA−) sub-population. Additionally, there was no compromise in the PEC mass and yield. […]
Undifferentiated human ESC were expanded and differentiated substantially as described above in Table 17 Protocol #1 for stages 1-4 and in Schulz et al. (2012) supra, except that during the three (3) days of stage 3, 4 different conditions were compared: (i) 0 noggin (“no noggin”) for all 3 days; (ii) 1 day of Noggin at 50 ng/mL and 2 days with no additional Noggin; (iii) 2 days of Noggin at 50 ng/mL and 1 day with no additional noggin; and (iv) 3 days of Noggin at 50 ng/mL. After stage 3, each of these conditions (i) through (iv) then received the standard stage 4 differentiation media cocktail according to Table 8 and Table 17, but without additional Noggin. […] Moreover, with each additional day of noggin treatment, fewer non-endocrine multipotent pancreatic progenitor sub-populations were produced (compare 90.6% with no noggin to 64.6% with 3 days of noggin treatment).

[3] = system: hES-derived cell aggregates; assay: Cell aggregate size / cell mass in suspension culture (imaging); type: cell-based, human; conditions: 3 days of 50 ng/mL at stage 3 as compared to 2 days
Procedure: Preliminary studies were performed using Heregulin and FGF. In certain of these studies, Rho-kinase inhibitor, Y-27632, was included. […] An increase in cell aggregate size is advantageous in that it results in higher cell mass for later implantation and testing for function in animals.
Various growth factors were explored for their ability to suppress genes such as NGN3 during stages 3 and 4. One candidate growth factor was Activin which has diverse functions in stem cell expansion and differentiation. For example, at low levels (e.g. 10 ng/mL), Activin helps maintain pluripotent stem cell pluripotency and cell proliferation. At higher levels (e.g. 100 ng/mL) Activin acts as a differentiation growth factor responsible for definitive endoderm production at stage 1 (see e.g., Table 8). To test its effect on repressing cells committed to the endocrine lineage (CHGA+) during PEC formation, Applicant first tested Activin at a mid-level concentration of about 50 ng/mL with standard adherent differentiation.
So, Activin levels less than about 25 ng/mL are acceptable for maintaining cell mass and yield. Applicant then performed flow cytometry analysis on these cell cultures to determine whether Activin at low levels during stages 3 and 4 had any effect on cell aggregate composition; see Table 14. […]

SOX17 expression = conditions: 1 μg/mL of insulin; cited from earlier work
[4] = 50 ng/mL of FGF2 for 2 days at stage 3
[5] = 50 ng/mL of FGF2 for 3 days at stage 3

For CC(C)(C(=O)NCC(F)(F)C(F)(F)F)C(=O)N[C@@H]1C(=O)Nc2ccccc2-c2ccccc21 [RO4929097, reference compound], the NGN3 expression ([1]; 1 μM for 2 days at stage 5, day 15 versus day 13) was “strongly induced NGN3 expression”.
For C/C(=C\c1ccc(C(=O)O)cc1)c1ccc2c(c1)C(C)(C)CCC2(C)C [TTNPB, 4-[(E)-2-(5,6,7,8-Tetrahydro-5,5,8,8-tetramethyl-2-naphthalenyl)-1-propenyl]benzoic acid, reference compound], the PDX1 expression ([1]; 0.5 nM alone at stages 6 & 7 or stage 7 alone) was “does not appear to increase PDX1 expression”.
For C[C@@H](N)[C@H]1CC[C@H](C(=O)Nc2ccncc2)CC1 [Y-27632], the “cell associations of re-aggregated endocrine cell aggregates” value [2] was “capable of promoting tighter cell associations”.
For NC(=O)c1cccnc1 [nicotinamide, reference compound], the “increase in the INS/GCG expression ratio” value ([1]; stage 6 culture conditions, analyzed at day 21) was 3 fold.
In the case of FGF1: acidic FGF, the pancreatic-lineage gene expression [1] is reported as “upregulated GCG and SST”.
With FGF2: Fibroblast growth factor 2 the “CHGA+ (Endocrine)” value (PEC derived from hESC; [4]) was 11.9%, the “CHGA− NKX6.1− PDX1− (Triple Negative/Residual Cells)” value (PEC derived from hESC; [4]) was 9.15% and the “CHGA−, NKX6.1+, PDX1+ (Non-endocrine)” value (PEC derived from hESC; [4]) was 79%. The “CHGA+ (Endocrine)” value (PEC derived from hESC; [5]) was 0.33%, the “CHGA− NKX6.1− PDX1− (Triple Negative/Residual Cells)” value (PEC derived from hESC; [5]) was 22.7% and the “CHGA−, NKX6.1+, PDX1+ (Non-endocrine)” value (PEC derived from hESC; [5]) was 76.9%. The cell aggregate size [3] was “An increase in cell aggregate size was also observed” and the pancreatic-lineage gene expression [1] was “significant increase in SST expression”.
With IGF2: Insulin-like growth factor II the INS expression ([1]; 25 or 100 ng/mL from day 17 for about 3 days, stage 6, data not shown) was “more capable of inducing INS expression than IGF1”.
For insulin, the “SOX17 expression is reduced” value (SOX17 expression) is listed as 4 fold.
